# pIC50: −log10 of the molar value.
# Target: T1, PD-1/PD-L1 (Homo sapiens, UniProt Q9NZQ7)
# T1 construct: made in house; host or cells: HEK293T
# Assay: PD-1/PD-L1 Homogenous Time-Resolved Fluorescence (HTRF) binding assay
# Conditions: PD-L1-His 10 nM, PD-1-Ig 20 nM; value given as range class; read-out: Range or IC50
# In short: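 Compounds are tested for blocking the PD-1/PD-L1 interaction in dPBS supplemented with 0.1% BSA and 0.05% (v/v) Tween-20. Tagged proteins are detected with Eu-cryptate anti-Ig and APC anti-His at 1 and 20 nM final.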
# T1 sequence (Q9NZQ7 with tags, fused parts or gaps): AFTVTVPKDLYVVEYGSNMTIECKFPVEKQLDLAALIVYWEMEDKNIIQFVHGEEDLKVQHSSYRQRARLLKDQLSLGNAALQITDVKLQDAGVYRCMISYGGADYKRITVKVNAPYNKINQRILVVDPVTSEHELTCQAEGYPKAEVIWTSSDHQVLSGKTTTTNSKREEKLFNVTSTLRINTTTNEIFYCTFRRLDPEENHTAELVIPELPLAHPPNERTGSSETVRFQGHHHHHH
row,pIC50,Compound
1,5.00 to 5.70,"Cc1c(COc2cc(OCc3cncc(C#N)c3)c(CO)cc2Cl)cccc1-c1cc(OCCCN2CC[C@@H](O)C2)cc(OCCCN2CC[C@@H](O)C2)c1 [Example 3063, 5-((5-((3′,5′-bis(3-((R)-3-hydroxypyrrolidin-1-yl)propoxy)-2-methyl-[1,1′-biphenyl]-3-yl)methoxy)-4-chloro-2-(hydroxymethyl)phenoxy)methyl)nicotinonitrile]"
2,8.00 to 9.68,"Cc1c(COc2cc(OCc3cncc(C#N)c3)c(CN[C@H](CO)C(=O)O)cc2Cl)cccc1-c1cccc(OCCCN2CC[C@@](O)(c3ccc(Cl)cc3)[C@](C)(O)C2)c1Cl [Example 1089, (5-chloro-4-((2′-chloro-3′-(3-((3R,4R)-4-(4-chlorophenyl)-3,4-dihydroxy-3-methylpiperidin-1-yl)propoxy)-2-methyl-[1,1′-biphenyl]-3-yl)methoxy)-2-((5-cyanopyridin-3-yl)methoxy)benzyl)-D-serine]"
3,8.00 to 9.68,"Cc1c(COc2cc(OCc3cncc(C#N)c3)c(CN[C@](C)(CO)C(=O)O)cc2Cl)cccc1-c1cccc(OCCCN2CCC(O)(C(=O)O)CC2)c1Cl [Example 1099, (R)-1-(3-((3′-((4-(((2-carboxy-1-hydroxypropan-2-yl)amino)methyl)-2-chloro-5-((5-cyanopyridin-3-yl)methoxy)phenoxy)methyl)-2-chloro-2′-methyl-[1,1′-biphenyl]-3-yl)oxy)propyl)-4-hydroxypiperidine-4-carboxylic Acid]"
4,8.00 to 9.68,"Cc1cc(OCc2cccc(-c3cccc(OCCCN4CC[C@@H](O)C4)c3C)c2C)c(Cl)cc1CN1CCCC[C@H]1C(=O)O [Example 4523, (S)-1-(5-chloro-4-((3′-(3-((R)-3-hydroxypyrrolidin-1-yl)propoxy)-2,2′-dimethyl-[1,1′-biphenyl]-3-yl)methoxy)-2-methylbenzyl)piperidine-2-carboxylic Acid]"
5,7.00 to 8.00,"Cc1c(COc2cc(OCc3cncc(C#N)c3)c(CNC(CO)CO)cc2Cl)cccc1-c1cccc(Oc2cccc3c2CCNC3=O)c1C [Example 2354, 5-((4-chloro-2-(((1,3-dihydroxypropan-2-yl)amino)methyl)-5-((2,2′-dimethyl-3′-((1-oxo-1,2,3,4-tetrahydroisoquinolin-5-yl)oxy)-[1,1′-biphenyl]-3-yl)methoxy)phenoxy)methyl)nicotinonitrile]"
6,8.00 to 9.68,"Cc1c(COc2cc(OCc3cncc(C#N)c3)c(CN3CCCC[C@H]3C(=O)O)cc2Cl)cccc1-c1cccc(OCCCN2CCC[C@H](O)C2)c1C [Example 2224, (2S)-1-(5-chloro-2-((5-cyanopyridin-3-yl)methoxy)-4-((3′-(3-((S)-3-hydroxypiperidin-1-yl)propoxy)-2,2′-dimethylbiphenyl-3-yl)methoxy)benzyl)piperidine-2-carboxylic Acid]"
7,8.00 to 9.68,"Cc1c(COc2cc(OCc3cc(Cl)cc(Cl)c3)c(CNC(C)(CO)CO)cc2Cl)cccc1-c1cccc(OCCCN2CC[C@@H](O)C2)c1C [Example 4504, (R)-2-((5-chloro-2-((3,5-dichlorobenzyl)oxy)-4-((3′-(3-(3-hydroxypyrrolidin-1-yl)propoxy)-2,2′-dimethyl-[1,1′-biphenyl]-3-yl)methoxy)benzyl)amino)-2-methylpropane-1,3-diol]"
8,8.00 to 9.68,"Cc1c(COc2cc(OCc3cncc(C#N)c3)c(CN(C)[C@@H](CO)C(=O)O)cc2Cl)cccc1-c1cccc(OCCCN2CC[C@@H](O)C2)c1C [Example 4136, N-(5-chloro-2-((5-cyanopyridin-3-yl)methoxy)-4-((3′-(3-((R)-3-hydroxypyrrolidin-1-yl)propoxy)-2,2′-dimethyl-[1,1′-biphenyl]-3-yl)methoxy)benzyl)-N-methyl-L-serine]"
9,8.00 to 9.68,"Cc1c(COc2cc(OCCCN3CC[C@@H](O)C3)c(CN[C@@H](CO)C(=O)O)cc2Cl)cccc1-c1cccc(OCCCN2CC[C@@H](O)C2)c1C [Example 1530, (5-chloro-2-(3-((R)-3-hydroxypyrrolidin-1-yl)propoxy)-4-((3′-(3-((R)-3-hydroxypyrrolidin-1-yl)propoxy)-2,2′-dimethyl-[1,1′-biphenyl]-3-yl)methoxy)benzyl)-L-serine]"
10,8.00 to 9.68,"COc1cc(OCc2cccc(-c3cccc(OCCCN4CC[C@@H](O)C4)c3C)c2C)c(Cl)cc1CN[C@@](C)(CO)C(=O)O [Example 3033, (2S)-2-((5-chloro-4-((3′-(3-((R)-3-hydroxypyrrolidin-1-yl)propoxy)-2,2′-dimethyl-[1,1′-biphenyl]-3-yl)methoxy)-2-methoxybenzyl)amino)-3-hydroxy-2-methylpropanoic Acid]"
11,8.00 to 9.68,"Cc1c(COc2cc(OCc3cncc(C#N)c3)c(CNC(CO)CO)cc2Cl)cccc1-c1cccc(OCCCNC[C@H](O)CO)c1Cl [Example 2036, (S)-5-((4-chloro-5-((2′-chloro-3′-(3-((2,3-dihydroxypropyl)amino)propoxy)-2-methyl-[1,1′-biphenyl]-3-yl)methoxy)-2-(((1,3-dihydroxypropan-2-yl)amino)methyl)phenoxy)methyl)nicotinonitrile]"
12,5.70 to 7.00,"Cc1c(COc2cc(OCc3cncc(C#N)c3)c(CN3CCCC[C@H]3C(=O)O)cc2Cl)cccc1-c1cccc(C(=O)N2CCN(C)CC2)c1C [Example 3059, (S)-1-(5-chloro-2-((5-cyanopyridin-3-yl)methoxy)-4-((2,2′-dimethyl-3′-(4-methylpiperazine-1-carbonyl)-[1,1′-biphenyl]-3-yl)methoxy)benzyl)piperidine-2-carboxylic Acid]"
13,8.00 to 9.68,"Cc1c(COc2cc(OCc3cncc(C#N)c3)c(CN(C)[C@@H](C)C(=O)O)cc2Cl)cccc1-c1cccc(OCCCN2CC[C@@H](O)C2)c1C [Example 4132, N-(5-chloro-2-((5-cyanopyridin-3-yl)methoxy)-4-((3′-(3 ((R)-3-hydroxypyrrolidin-1-yl)propoxy)-2,2′-dimethyl-[1,1′-biphenyl]-3-yl)methoxy)benzyl)-N-methyl-L-alanine]"
14,8.00 to 9.68,"Cc1c(COc2cc(OCc3cncc(C#N)c3)c(CN(C)[C@@](C)(CO)C(=O)O)cc2Cl)cccc1-c1cccc(OCCCN2CC[C@@H](O)C2)c1C [Example 4108, (S)-2-((5-chloro-2-((5-cyanopyridin-3-yl)methoxy)-4-((3′-(3-((R)-3-hydroxypyrrolidin-1-yl)propoxy)-2,2′-dimethyl-[1,1′-biphenyl]-3-yl)methoxy)benzyl)(methyl)amino)-3-hydroxy-2-methylpropanoic Acid]"
15,8.00 to 9.68,"Cc1c(COc2cc(OCc3cncc(C#N)c3)c(CN[C@@](C)(CO)C(=O)O)cc2Cl)cccc1-c1cccc(OCCCN2CCC(O)(c3ccccc3)C2)c1C (stereo partly drawn) [Example 3037, (2S)-2-((5-chloro-2-((5-cyanopyridin-3-yl)methoxy)-4-((3′-(3-(3-hydroxy-3-phenylpyrrolidin-1-yl)propoxy)-2,2′-dimethyl-[1,1′-biphenyl]-3-yl)methoxy)benzyl)amino)-3-hydroxy-2-methylpropanoic Acid]"
16,8.00 to 9.68,"CC(=O)NC1CCN(CCCOc2cccc(-c3cccc(COc4cc(OCc5cncc(C#N)c5)c(CO)cc4Cl)c3C)c2Cl)C1 (stereo not shown) [Example 2021, N-(1-(3-((2-chloro-3′-((2-chloro-5-((5-cyanopyridin-3-yl)methoxy)-4-(hydroxymethyl)phenoxy)methyl)-2′-methyl-[1,1′-biphenyl]-3-yl)oxy)propyl)pyrrolidin-3-yl)acetamide]"

# — patent publication US10745382B2 (BRISTOL-MYERS SQUIBB COMPANY, priority 2015, dated 2020)
